Test results published in EP2416773B1, “CHECKPOINT KINASE 1 INHIBITORS FOR POTENTIATING DNA DAMAGING AGENTS” (Array Biopharma, Inc., priority 2009, dated 2010).
Read-outs that look alike come from different tables or passages of the source.

What was measured:
[1] = Tolerability of CPT11 and Compound 2 with 12, 24 or 48 hour delay in naive mice (Example 4); type: in vivo; settings: single agent; CPT11 100 mg/kg IP Q10Dx2; Compound 2 25 mg/kg PO BID 3 days per cycle
[2] = tested on: subcutaneous HT-29 xenografts; type: in vivo; settings: single agent; CPT11 100 mg/kg IP Q10Dx2; Compound 2 25 mg/kg PO BID
Protocol: (§1) Female nude mice were inoculated subcutaneously with 5 X 10^6 HT-29 tumor cells in IX PBS (100 µL). Twelve days later, mice were randomized into groups of 8 with an average tumor volume in each group of approximately 215 mm^3. […] Tumor size and animal body weight were measured over the course of the study on the days indicated with data points in Figure 6. Tumor volume was calculated using the formula: volume = (width^2 X length)/2.

[3] = tested on: subcutaneous HT-29 xenografts; assay: Tumor growth inhibition experiment, CPT11 and Compound 5 (Example 12); type: in vivo; settings: for Growth Delay / Maximum % Body Weight Loss: single agent, CPT11 100 mg/kg IP Q10Dx2, Compound 5 PO BID 3 days, dose not given
Protocol: Female nude mice were inoculated subcutaneously with 4 X 10^6 HT-29 tumor cells in 1X PBS (100 µL). Twelve days later, mice were randomized into groups of 7 with an average tumor volume in each group of approximately 200 mm^3. […] Tumor size and animal body weight were measured over the course of the study on the days indicated with data points in Figure 13. Tumor volume was calculated using the formula: volume = (width^2 x length)/2. No mortalities occurred over the course of this study.

[4] = tested on: subcutaneous HT-29 xenografts; assay: Tumor growth inhibition experiment with tolerability, CPT11 and Compound 1, simultaneous or 24 hour delay (Example 3); type: in vivo; settings: single agent; CPT11 100 mg/kg IP single dose; Compound 1 50 mg/kg PO BID 3 consecutive days
Protocol: as §1, with “1X” for “IX”, “6” for “8”, “250” for “215”, “5.” for “6.”, “formula” for “formula:”

[5] = tested on: subcutaneous HT-29 xenografts; type: in vivo; settings: single agent; gemcitabine 140 mg/kg IP Q7Dx2; Compound 2 PO BID 3 days, dose not given
Protocol: Female nude mice were inoculated subcutaneously with 5 X 10^6 HT-29 tumor cells in IX PBS (100 µL). Fourteen days later, mice were randomized into groups of 8 with an average tumor volume in each group of approximately 260 mm^3. Sorted animals were administered gemcitabine (140 mg/kg; IP) on a Q7Dx2 cycles schedule. Compound 2 (10 or 25mg/kg: PO, BID) administration was initiated 24 hours post gemcitabine and endured for 3 days as indicated. Tumor size and animal body weight were measured over the course of the study on the days indicated with data points in Figure 9. Tumor volume was calculated using the formula: volume = (width^2 X length)/2. No mortalities occurred over the course of this study.

[6] = Compound 2 exposure in HT-29 tumor bearing mice after CPT11 (Example 6); type: in vivo, nude mice; settings: Compound 2 25 mg/kg PO, from 24 hours after CPT11 100 mg/kg; single dose vs 3 consecutive days BID; t-test > 0.05
[7] = tested on: subcutaneous HT-29 xenografts; assay: Tumor growth inhibition experiment, CPT11 and Compound 2 (Example 11); type: in vivo, nude mice; settings: in combination with CPT-11; Compound 2 10 or 25 mg/kg PO BID
Protocol: as §1, with “in 1X” for “in IX”, “µL). Fourteen” for “µL). Twelve”, “approximately 260” for “approximately 215”, “Figure 12.” for “Figure 6.”, “formula: volume=” for “formula: volume =”, “(width^2 x” for “(width^2 X”

[8] = tested on: phospho-cdc2; assay: Inhibition of CPT11 induced phosphorylation of cdc2 in HT-29 tumors, immunoblot (Example 7); type: in vivo, nude mice; settings: extended dosing: 5, 10 or 25 mg/kg PO BID 3 consecutive days from 24 hours after CPT11 100 mg/kg IP; tumors harvested 96 hours post CPT11
Protocol: Female nude mice were inoculated subcutaneously with 5 X 10^6 HT-29 tumor cells in IX PBS (100 µL). Twenty nine days later, mice were randomized into groups of 3 with an average tumor volume in each group of approximately 500 mm^3. […] Compound 5 was given as a single dose at 25 mg/kg, or alternatively 5, 10, or 25 mg/kg doses were given for 3 consecutive days on BID schedules. […] Phosphorylation of cdc2 was assessed by immunoblot and normalized to total ERK expression. Results are expressed as POC.

[9] = tested on: subcutaneous HT-29 xenografts; type: in vivo; settings: for Growth Delay: gemcitabine 120 mg/kg IP Q7Dx3
Protocol: Female nude mice were inoculated subcutaneously with 5 X 10^6 HT-29 tumor cells in IX PBS (100 µL). Fourteen days later, mice were randomized into groups of 7 with an average tumor volume in each group of approximately 200 mm^3. Sorted animals were administered gemcitabine (120 mg/kg; IP) on a Q7Dx3 cycles schedule. Compound 5 (5, 10 or 25mg/kg; PO. BID) administration was initiated 24 hours post gemcitabine and endured for 3 days as indicated. Tumor size and animal body weight were measured over the course of the study on the days indicated with data points in Figure 10. Tumor volume was calculated using the formula: volume = (width^2 X length)/2. No mortalities occurred over the course of this study.

[10] = tested on: MiaPaCa2 pancreatic carcinoma xenografts; type: in vivo; settings: for % Tumor Growth Inhibition / Growth Delay: single agent, gemcitabine 120 mg/kg IP Q7Dx3, Compound 5 given as 10 mg/kg in table
Protocol: female nude mice were inoculated subcutaneously with 7 X 10^6 MiaPaCa2 tumor cells in a 1:1 1X PBS and matrigel suspension (100 µL). Fifteen days later, mice were randomized into groups of 7 with an average tumor volume in each group of approximately 315 mm^3. Sorted animals were administered gemcitabine (120 mg/kg; IP) on a Q7Dx3 cycles schedule. […] Tumor size and animals body weight were measured over the course of the study on the days indicated with data points in Figure 11. Tumor volume was calculated using the formula: volume = (width^2 X length)/2. No mortalities occurred over the course of this study.

[11] = single agent, Compound 5 10 mg/kg PO BID 3 days

Compound	% Mortality [1]	Maximum % Body Weight Loss [1]	Growth Delay [2]	Growth Delay [3]	Maximum % Body Weight Loss [3]	Maximum % Body Weight Loss [4]	Growth Delay [5]	Growth Delay [9, 11]	% Tumor Growth Inhibition [10]	Growth Delay [10]	also measured
CCc1c2c(nc3ccc(OC(=O)N4CCC(N5CCCCC5)CC4)cc13)-c1cc3c(c(=O)n1C2)COC(=O)[C@]3(O)CC [CPT11, irinotecan, reference compound]	0%	3.4. Day 14%	16 days	16.6 days	6.3, Day 18%	3.9, Day 13%					% Mortality [4]: 0%
N[C@@H]1CCCN(c2c(Br)cnc3[nH]cc(NC(=O)c4cccnc4)c23)C1 [Compound 1, (R)-N-(4-(3-aminopiperidin-1-yl)-5-bromo-1H-pyrrolo[2,3-b]pyridin-3-yl)nicotinamide]						3.9, Day 13%					
CC(C)C(=O)Nc1c[nH]c2ncc(Br)c(N3CCC[C@@H](N)C3)c12 [Compound 2, (R)-N-(4-(3-aminopiperidin-1-yl)-5-bromo-1H-pyrrolo[2,3-b]pyridin-3-yl)isobutyramide]	0%	0.3, Day 17%	1.8 days				4.78 days				exposure following a single dose or administration for 3 days [6]: not statistically_different; inhibition of tumor growth [7]: dose related inhibition of tumor growth; Maximum % Body Weight Loss [2]: 7.2, Dav 3%
N[C@@H]1CCCN(c2c(Br)cnc3[nH]cc(NC(=O)C4CC4)c23)C1 [Compound 5, (R)-N-(4-(3-aminopiperidin-1-yl)-5-bromo-1H-pyrrolo[2,3-b]pyridin-3-yl)cyclopropanecarboxamide]				7.7 days	2.5, Dav 18%			5.7 days	25,5%	6.1 days	inhibition of CPT11 induced phospho-cdc2 [8]: dose-related inhibition; inhibition of tumor growth ([9]; in combination with gemcitabine, Compound 5 5, 10 or 25 mg/kg PO BID): dose related inhibition of tumor growth; % Regression [9, 11]: 31.6%; tumor growth ([10]; in combination with gemcitabine, MiaPaCa2 pancreatic carcinoma xenografts): inhibits tumor growth; inhibition of tumor growth ([3]; in combination with CPT-11, Compound 5 5, 10 or 25 mg/kg PO BID): dose related inhibition of tumor growth
Nc1ccn([C@@H]2O[C@H](CO)[C@@H](O)C2(F)F)c(=O)n1 [Gemcitabine, gemcitabine, reference compound]							4.39 days	11.5 days	6.6%	2.2 days	
